The values below come from patent US10435399B2, “HDAC6 inhibitory heterocyclic compound” (TAKEDA PHARMACEUTICAL COMPANY LIMITED, priority 2017, dated 2019).

The target of one assay is T1, HDAC6 enzyme (Homo sapiens, UniProt Q9UBN7).
T1 construct: transducing full length HDAC6 gene into Sf-9 insect cells; GST; purchased SignalChem; host or cells: Sf-9 insect cells
T1 sequence (Q9UBN7 1-1215): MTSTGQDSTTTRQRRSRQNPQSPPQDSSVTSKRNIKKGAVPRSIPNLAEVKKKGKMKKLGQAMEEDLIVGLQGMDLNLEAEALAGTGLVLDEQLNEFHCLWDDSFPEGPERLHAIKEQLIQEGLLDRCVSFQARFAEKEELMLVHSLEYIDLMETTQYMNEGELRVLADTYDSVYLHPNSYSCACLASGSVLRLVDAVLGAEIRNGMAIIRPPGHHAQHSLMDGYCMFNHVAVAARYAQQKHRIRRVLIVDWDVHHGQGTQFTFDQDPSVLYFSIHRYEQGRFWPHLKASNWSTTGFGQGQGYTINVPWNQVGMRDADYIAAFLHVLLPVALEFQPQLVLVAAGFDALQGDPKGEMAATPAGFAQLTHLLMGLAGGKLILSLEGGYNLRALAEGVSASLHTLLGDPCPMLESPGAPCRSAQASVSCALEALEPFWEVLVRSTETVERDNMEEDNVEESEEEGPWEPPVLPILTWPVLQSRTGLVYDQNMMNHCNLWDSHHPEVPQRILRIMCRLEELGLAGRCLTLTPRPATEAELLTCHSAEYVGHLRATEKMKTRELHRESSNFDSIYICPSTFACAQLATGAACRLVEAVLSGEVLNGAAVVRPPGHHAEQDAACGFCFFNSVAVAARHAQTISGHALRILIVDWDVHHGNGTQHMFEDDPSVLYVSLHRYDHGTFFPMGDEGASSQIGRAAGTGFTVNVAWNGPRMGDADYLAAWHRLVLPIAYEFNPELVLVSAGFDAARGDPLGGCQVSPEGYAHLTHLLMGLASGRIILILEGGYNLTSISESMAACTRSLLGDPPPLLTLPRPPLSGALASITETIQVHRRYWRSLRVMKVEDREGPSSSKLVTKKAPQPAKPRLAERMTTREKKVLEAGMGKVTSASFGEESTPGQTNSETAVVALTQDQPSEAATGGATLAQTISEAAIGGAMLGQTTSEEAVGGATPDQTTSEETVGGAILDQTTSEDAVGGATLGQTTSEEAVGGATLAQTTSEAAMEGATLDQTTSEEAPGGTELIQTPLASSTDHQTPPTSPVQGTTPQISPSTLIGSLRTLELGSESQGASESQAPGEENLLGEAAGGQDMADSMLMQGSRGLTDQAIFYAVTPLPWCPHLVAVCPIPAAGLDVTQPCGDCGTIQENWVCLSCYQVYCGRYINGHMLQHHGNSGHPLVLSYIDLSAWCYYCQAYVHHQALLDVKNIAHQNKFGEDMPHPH
Description: HDAC6 enzyme inhibitory activity (HDAC-Glo I/II Assay kit). The format is biochemical. The conditions noted are these: 10 μM; wells without enzyme = 100% inhibition. How it is done: HDAC6 enzyme prepared by transducing full length HDAC6 gene into Sf-9 insect cells and purifying by GST affinity column were purchased from SignalChem. Using this enzyme, HDAC6 enzyme inhibitory activities of the compound of the present invention were evaluated. Enzymes were used after preserved at −70° C. HDAC6 enzyme inhibitory activity of the compound of the present invention was measured using HDAC-Glo™ I/II Assay kit (Promega) according to the following experimental method. The test compound diluted with assay buffer (24 mM Tris-HCl (pH 7.5), 1 mM MgCl2, 0.35 mM KCl, 135 mM NaCl, 0.6 mM Glutathione, 0.01% Tween-20) was added to a 384-well plate by each 2 μL. Then, HDAC6 enzyme solution diluted with assay buffer was added thereto by each 4 μL, and the plate was incubated at room temperature for 60 min. After incubated, HDAC substrate-Developer solution prepared according to Promega protocol attached to the assay kit was added to the 384-well plate by each 2 μL, and the enzyme reaction was started. After reacting at room temperature for 20 min, luminescence level was measured using plate reader Envision (PerkinElmer). The inhibitory activity of each compound of Example was calculated as a relative activity value when luminescence level in wells without enzyme is considered as 100% inhibition.
`O=C1c2cc(-c3nnc(C(F)F)o3)ccc2CN1[C@@H]1CCCC[C@H]1n1cccn1` (relative stereo) [Example 529, 6-(5-(difluoromethyl)-1,3,4-oxadiazol-2-yl)-2-((1R*,2R*)-2-(1H-pyrazol-1-yl)cyclohexyl)isoindolin-1-one (optical isomer)]: the “HDAC6 inhibitory rate (%) (10 μM)” value came out at 100%.

Take `O=C1c2cc(-c3nnc(C(F)F)o3)ccc2CN1[C@H]1CCCC[C@H]1n1cccn1` (relative stereo) [Example 543, 6-(5-(difluoromethyl)-1,3,4-oxadiazol-2-yl)-2-((1S*,2R*)-2-(1H-pyrazol-1-yl)cyclohexyl)isoindolin-1-one (optical isomer)]: the “HDAC6 inhibitory rate (%) (10 μM)” value is listed as 100%.

On to `COC(=O)N1CC[C@@H](c2ccc(F)cc2)[C@H](N2Cc3ccc(-c4nnc(C(F)F)o4)cc3C2=O)C1` (relative stereo) [Example 545, methyl (3S*,4S*)-3-(6-(5-(difluoromethyl)-1,3,4-oxadiazol-2-yl)-1-oxo-1,3-dihydro-2H-isoindol-2-yl)-4-(4-fluorophenyl)piperidine-1-carboxylate (optical isomer)], for which the “HDAC6 inhibitory rate (%) (10 μM)” value stood at 100%.

Regarding `O=C1c2cc(-c3nnc(C(F)F)o3)cnc2CN1[C@@H]1CCCC[C@H]1Oc1ccc(F)cc1` (relative stereo) [Example 552, 3-(5-(difluoromethyl)-1,3,4-oxadiazol-2-yl)-6-((1R*,2R*)-2-(4-fluorophenoxy)cyclohexyl)-6,7-dihydro-5H-pyrrolo[3,4-b]pyridin-5-one (optical isomer)], the “HDAC6 inhibitory rate (%) (10 μM)” value amounted to 100%.

As to `O=C1c2cc(-c3nnc(C(F)F)o3)cnc2CN1[C@@H]1CCCC[C@H]1c1ccccn1` (relative stereo) [Example 588, 3-(5-(difluoromethyl)-1,3,4-oxadiazol-2-yl)-6-((1R*,2R*)-2-(pyridin-2-yl)cyclohexyl)-6,7-dihydro-5H-pyrrolo[3,4-b]pyridin-5-one (optical isomer)], the “HDAC6 inhibitory rate (%) (10 μM)” value worked out at 100%.

The same assay, now with this note: 10 μM; wells without enzyme = 100% inhibition; read-out: HDAC6 inhibitory rate (%) (10 μM).
`O=C(C(F)F)N1CCC[C@H](N2Cc3ccc(-c4nnc(C(F)F)o4)cc3C2=O)[C@H]1c1ccc(F)cc1` (racemic) [Example 584, 2-((2RS,3SR)-1-(difluoroacetyl)-2-(4-fluorophenyl)piperidin-3-yl)-6-(5-(difluoromethyl)-1,3,4-oxadiazol-2-yl)isoindolin-1-one]: the inhibition at 10 µM is 100%.

As to `O=C1c2cc(-c3nnc(C(F)F)o3)cnc2CN1[C@@H]1CCCC[C@H]1Oc1cncc(F)c1` (racemic) [Example 585, 3-(5-(difluoromethyl)-1,3,4-oxadiazol-2-yl)-6-((1RS,2RS)-2-((5-fluoropyridin-3-yl)oxy)cyclohexyl)-6,7-dihydro-5H-pyrrolo[3,4-b]pyridin-5-one], the inhibition at 10 µM came out at 100%.

For the compound `CC(C)(C)OC(=O)N1CCC[C@@H](N2Cc3ccc(-c4nnc(C(F)F)o4)cc3C2=O)[C@H]1c1ccc(F)cc1` (racemic) [Example 618, tert-butyl (2RS,3RS)-3-(6-(5-(difluoromethyl)-1,3,4-oxadiazol-2-yl)-1-oxo-1,3-dihydro-2H-isoindol-2-yl)-2-(4-fluorophenyl)piperidine-1-carboxylate], the inhibition at 10 µM amounted to 99%.

`O=C1c2cc(-c3nnc(C(F)F)o3)ccc2CN1[C@@H]1CCCN[C@@H]1c1ccc(F)cc1` (racemic) [Example 620, 6-(5-(difluoromethyl)-1,3,4-oxadiazol-2-yl)-2-((2RS, 3RS)-2-(4-fluorophenyl)piperidin-3-yl)isoindolin-1-one]: the inhibition at 10 µM amounted to 101%.

With `O=C1c2cc(-c3nnc(C(F)F)o3)ccc2CN1[C@@H]1CCCN(C(=O)C(F)F)[C@@H]1c1ccc(F)cc1` (racemic) [Example 624, 2-((2RS,3RS)-1-(difluoroacetyl)-2-(4-fluorophenyl)piperidin-3-yl)-6-(5-(difluoromethyl)-1,3,4-oxadiazol-2-yl)isoindolin-1-one], the inhibition at 10 µM is 100%.

Take `O=C1c2cc(-c3nnc(C(F)F)o3)cnc2CN1[C@@H]1CCCC[C@H]1c1ccn[nH]1` (racemic) [Example 654, 3-[5-(difluoromethyl)-1,3,4-oxadiazol-2-yl]-6-[(1RS,2RS)-2-(1H-pyrazol-5-yl)cyclohexyl]-6,7-dihydro-5H-pyrrolo[3,4-b]pyridin-5-one]: the inhibition at 10 µM worked out at 100%.

As for `O=C1c2cc(-c3nnc(C(F)F)o3)ccc2CN1[C@@H]1CCCC[C@H]1n1cccn1` (relative stereo) [Example 528, 6-(5-(difluoromethyl)-1,3,4-oxadiazol-2-yl)-2-((1R*,2R*)-2-(1H-pyrazol-1-yl)cyclohexyl)isoindolin-1-one (optical isomer)], the inhibition at 10 µM worked out at 99%.

With `O=C1c2cc(-c3nnc(C(F)F)o3)cnc2CN1[C@@H]1CCCC[C@H]1n1cccn1` (relative stereo) [Example 539, 3-(5-(difluoromethyl)-1,3,4-oxadiazol-2-yl)-6-((1R*,2R*)-2-(1H-pyrazol-1-yl)cyclohexyl)-6,7-dihydro-5H-pyrrolo[3,4-b]pyridin-5-one (optical isomer)], the inhibition at 10 µM was 99%.

Consider `O=C1c2cc(-c3nnc(C(F)F)o3)ccc2CN1[C@H]1CCCC[C@H]1n1cccn1` (relative stereo) [Example 542, 6-(5-(difluoromethyl)-1,3,4-oxadiazol-2-yl)-2-((1S*,2R*)-2-(1H-pyrazol-1-yl)cyclohexyl)isoindolin-1-one (optical isomer)], for which the inhibition at 10 µM was 90%.

For the compound `COC(=O)N1CC[C@@H](c2ccc(F)cc2)[C@H](N2Cc3ccc(-c4nnc(C(F)F)o4)cc3C2=O)C1` (relative stereo) [Example 544, methyl (3S*,4S*)-3-(6-(5-(difluoromethyl)-1,3,4-oxadiazol-2-yl)-1-oxo-1,3-dihydro-2H-isoindol-2-yl)-4-(4-fluorophenyl)piperidine-1-carboxylate (optical isomer)], the inhibition at 10 µM came to 99%.

Turning to `O=C1c2cc(-c3nnc(C(F)F)o3)cnc2CN1[C@@H]1CCCC[C@H]1Oc1ccc(F)cc1` (relative stereo) [Example 551, 3-(5-(difluoromethyl)-1,3,4-oxadiazol-2-yl)-6-((1R*,2R*)-2-(4-fluorophenoxy)cyclohexyl)-6,7-dihydro-5H-pyrrolo[3,4-b]pyridin-5-one (optical isomer)], the inhibition at 10 µM is 99%.

As for `O=C1c2cc(-c3nnc(C(F)F)o3)ccc2CN1[C@@H]1CCC(F)(F)C[C@H]1c1ccccn1` (relative stereo) [Example 586, 6-(5-(difluoromethyl)-1,3,4-oxadiazol-2-yl)-2-((1R*,2R*)-4,4-difluoro-2-(pyridin-2-yl)cyclohexyl)isoindolin-1-one (Optical Isomer)], the inhibition at 10 µM was 100%.

In the case of `O=C1c2cc(-c3nnc(C(F)F)o3)cnc2CN1[C@@H]1CCCC[C@H]1c1ccccn1` (relative stereo) [Example 587, 3-(5-(difluoromethyl)-1,3,4-oxadiazol-2-yl)-6-((1R*,2R*)-2-(pyridin-2-yl)cyclohexyl)-6,7-dihydro-5H-pyrrolo[3,4-b]pyridin-5-one (optical isomer)], the inhibition at 10 µM came to 99%.

With `O=C1c2cc(-c3nnc(C(F)F)o3)ccc2CN1[C@@H]1CCC(F)(F)C[C@@H]1c1ccccn1` (relative stereo) [Example 590, 6-(5-(difluooromethyl)-1,3,4-oxadiazol-2-yl)-2-((1R*,2S*)-4,4-difluoro-2-(pyridin-2-yl)cyclohexyl)isoindolin-1-one (optical isomer)], the inhibition at 10 µM is 100%.
